In PubChem BioAssay (NCI):
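Grown in 96-well plates, cells were treated for 48 hours with each compound at five concentrations. Insufficient inhibition: endpoint recorded as highest concentration tested. TGI denotes the concentration required for complete inhibition of growth.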

Assays:
Experiment in all cases: inhibition of tumour cell growth, NCI panel, 48 h
[1] = test system: OVCAR-5 ovarian
[2] = test system: PC-3 prostate
[3] = test system: NCI-H522 lung
[4] = test system: HCC-2998 colon
[5] = test system: HT29 colon
[6] = test system: NCI-H226 lung
[7] = test system: A549 NSCLC
[8] = test system: NCI-H23 lung
[9] = test system: U251 CNS
[10] = test system: MDA-MB-231 breast
[11] = test system: OVCAR-8 ovarian
[12] = test system: K-562 leukemia
[13] = test system: TK-10 renal
[14] = test system: CCRF-CEM leukemia
[15] = test system: CAKI-1 renal
[16] = test system: COLO 205 colon
[17] = test system: SN12C renal
[18] = test system: SK-MEL-5 melanoma
[19] = test system: EKVX NSCLC

SMILES | TGI [1] [µM] | TGI [2] [µM] | TGI [3] [µM] | TGI [4] [µM] | TGI [5] [µM] | TGI [6] [µM] | TGI [7] [µM] | TGI [8] [µM] | TGI [9] [µM] | TGI [10] [µM] | TGI [11] [µM] | TGI [12] [µM] | TGI [13] [µM] | TGI [14] [µM] | TGI [15] [µM] | TGI [16] [µM] | TGI [17] [µM] | TGI [18] [µM] | TGI [19] [µM]
CCOC(=O)c1sc2c(c1OC(=O)c1cc(OC)c(OC)c(OC)c1)c(=O)n(-c1ccccc1)c(=S)n2-c1ccccc1 | > 100 | > 100 | 63.1 | > 100 | > 100 | > 100 | > 100 | > 100 | > 100 | > 100 | > 100 | > 100 | > 100 | > 100 | > 100 | > 100 | > 100 | > 100 | > 100
CCOC(=O)C(=CNc1ccc(N(C2=NCC(C)S2)c2ccc(F)c(Cl)c2)cc1)C(=O)OCC (stereo unspecified) | 39 | 50.9 | 30.3 | 32 | 34.7 | 36.6 | 86.1 | 33.9 | 48.1 | 30.9 | 37.3 | > 100 | 57.1 | 30.1 | > 100 | 33.3 | 36.2 | 36.7 | 43.3
C[C@H]1C2Cc3cc(O)ccc3[C@@]1(C)CCN2CCc1ccc(N)cc1 | > 100 | 34.8 | 36.2 | 26.4 | 31.9 | > 100 | > 100 | > 100 | 33.9 | > 100 | 45.8 | 52.6 | > 100 | 69 | > 100 | > 100 | > 100 | 27.5 | > 100
CC(C)(C)C(=O)Oc1ccc(/C=C/C(=O)c2ccc(OC(=O)C(C)(C)C)cc2)cc1 | > 100 | > 100 | 8.78 | > 100 | > 100 | > 100 | > 100 | > 100 | > 100 | > 100 | > 100 | 86.7 | > 100 | 20.2 | 96.7 | > 100 | > 100 | > 100 | > 100
Cc1ccc(-c2c(-c3ccccc3)[nH]c(C)c2C(=O)ONC(=O)c2ccccc2)cc1 | 32.3 | 18.7 | 6.48 | 28.9 | > 42.4 | 19.1 | 7.65 | 17.4 | 4.07 | 12.8 | 18.5 | 6.72 | 18.2 | > 27.1 | 5.48 | 25.7 | 8.36 | 18.3 | > 50.3
COc1ccc2oc(S(=O)(=O)N3CC(CCl)c4ccc(N)cc43)cc2c1 (stereo unspecified) | > 100 | > 100 | > 67.6 | 3.05 | 10.1 | 1.77 | > 100 | > 100 | > 100 | > 24.9 | > 28.3 | > 60.1 | > 100 | 12.7 | > 86.3 | 14.9 | > 100 | 4.95 | > 100
COc1cc(/C=C2\C[C@H]3[C@@H]4CCC5=CC(=O)CC[C@]5(C)[C@H]4CC[C@]3(C)C2=O)cc(OC)c1OC | > 100 | > 43.2 | > 100 | > 100 | > 100 | > 100 | > 100 | > 100 | > 100 | > 100 | > 100 | > 100 | > 100 | > 100 | > 65.2 | > 60.6 | > 100 | 15.9 | > 100
C=C1C[C@@H](O)[C@@H](Br)C(C)(C)[C@@]12C=CC(=O)CC2 | 13.7 | 7.97 | > 100 | > 100 | > 100 | > 26.3 | > 100 | > 100 | > 100 | > 100 | > 100 | > 100 | > 100 | > 100 | > 100 | 4.34 | > 100 | > 100 | > 51.8
Nc1[nH]c(=O)nc2snnc12 | > 100 | > 100 | > 100 | > 100 | > 100 | > 100 | > 100 | > 100 | > 100 | > 100 | > 100 | > 39.7 | > 83.9 | > 100 | > 28.8 | > 100 | > 100 | > 100 | > 100
COc1cc(/C=N/N=C(\N)NO)cc(OC)c1OC | > 100 | > 100 | 80.6 | > 100 | > 100 | 73.8 | > 100 | > 100 | > 100 | > 100 | 37.9 | 49.2 | > 100 | > 100 | > 100 | > 100 | > 100 | 44.7 | > 100
COc1c2c(nc3ccccc13)-c1cc(C(CC(=O)OC(C)(C)C)C(=O)OC(C)C)c(CO)c(=O)n1C2 (stereo unspecified) | > 100 | > 100 | > 100 | > 100 | > 100 | > 100 | > 100 | > 100 | > 100 | > 100 | > 100 | > 100 | > 100 | > 100 | > 100 | > 100 | > 100 | > 100 | > 100
CC(=O)NC1(NC(C)=O)C2CC(C1Cc1ccccc1)C(C)(C)C2C (stereo unspecified) | > 100 | > 100 | > 100 | > 100 | > 100 | > 100 | > 100 | > 100 | > 100 | > 100 | > 100 | > 100 | > 100 | > 100 | > 100 | > 100 | > 100 | > 100 | > 100
COc1cc(C(=O)Oc2c(C(C)=O)sc3c2c(=O)n(-c2ccccc2)c(=S)n3-c2ccccc2)cc(OC)c1OC | 43.2 | 48.8 | 4.53 | 55.6 | 32.8 | 25.9 | 78.3 | 39.9 | 77.8 | 88.8 | 53.7 | > 100 | > 100 | 45.8 | 76.5 | 30.6 | 27.4 | 32.1 | 40.8
Nc1ccc(-c2nc3ccc(F)cc3s2)cc1Cl | > 100 | > 100 | > 100 | > 100 | > 100 | > 100 | > 100 | > 100 | > 100 | 99.5 | > 100 | > 100 | > 100 | > 100 | > 100 | > 100 | > 100 | > 100 | > 100
CC1CN=C(Nc2cccc(F)c2)S1 (stereo unspecified) | > 100 | > 100 | > 100 | > 100 | > 100 | > 100 | > 100 | > 100 | > 100 | 25.2 | > 100 | > 100 | > 100 | > 100 | > 100 | > 100 | > 100 | > 100 | > 100
O=C(/C=C1\Sc2ccccc2N=C1CC(=O)c1ccccc1)c1ccccc1 | 61.4 | > 100 | 55.4 | 26.2 | 23.6 | 35.5 | 25.1 | > 100 | 18.2 | 41.8 | 37 | 20 | 45.2 | 50 | 34.1 | 22.3 | 39.4 | 19 | 37.4
N#CC1=C(N)N(/N=C/c2ccccc2)C(c2ccccc2)C1(C#N)C#N (stereo unspecified) | 39.4 | 34.5 | 16.6 | 34.9 | 15.7 | 37.2 | 43.1 | 33.5 | 32.6 | 31.4 | 38 | > 26 | 16.7 | 6.12 | 13 | 4.82 | 31 | 30.9 | 38.3
O=Cc1ccc(OC[C@H]2COC(=O)N2)cc1 | > 100 | > 100 | > 100 | > 100 | > 100 | > 100 | > 100 | > 100 | > 100 | > 100 | > 100 | > 100 | > 100 | > 100 | > 100 | > 100 | > 100 | > 100 | > 100
NC(=O)CSc1c2cc(O)ccc2nc2ccc(O)cc12 | > 10 | > 10 | > 10 | > 10 | > 10 | > 10 | > 10 | > 10 | > 10 | > 10 | > 10 | > 10 | > 10 | > 10 | > 10 | > 10 | > 10 | > 10 | > 10
O=C(c1ccccc1)N1C(=O)N(c2ccccc2)C(=Nc2ccccc2)C1=Nc1ccccc1 | > 100 | > 100 | > 100 | > 100 | > 100 | > 100 | > 100 | > 100 | > 100 | > 100 | > 100 | > 100 | > 100 | > 100 | > 100 | > 100 | > 100 | > 100 | > 100
Cc1nc2ccc(S(=O)(=O)NS(=O)(=O)c3ccc(-c4ccccc4)cc3)cc2c(=O)n1NS(=O)(=O)c1ccc(-c2ccccc2)cc1 | > 100 | > 100 | > 100 | > 100 | > 100 | > 100 | > 100 | > 100 | > 100 | > 100 | > 100 | > 100 | > 100 | > 100 | > 100 | > 100 | > 100 | > 100 | > 100
CC12CCCCC1=C(F)C(F)(F)S2 (stereo unspecified) | 97.7 | > 87.2 | 45.3 | > 86.5 | 56.5 | > 100 | > 100 | > 100 | > 100 | > 100 | 77.3 | 59.2 | 69.9 | 22.7 | 48.9 | 40.2 | > 75.2 | > 91.1 | > 100
N#Cc1c2ccc([N+](=O)[O-])cc2c(=O)n2c1[nH]c1ccc(C(F)(F)F)cc12 | > 100 | > 100 | 38.7 | > 100 | > 47.4 | > 88.3 | > 100 | 65.3 | > 100 | > 77.8 | > 100 | 45.7 | > 100 | > 100 | > 100 | > 46.3 | > 100 | > 100 | > 100
Cn1c(=Nc2ccc(Cl)cc2)sc2ccccc21 | > 100 | > 100 | 35 | 68.3 | > 100 | > 100 | > 100 | > 100 | > 100 | > 100 | > 100 | > 100 | 98.1 | > 100 | > 100 | 81.3 | > 100 | > 100 | > 100
